Data from the kinase profiling compilation of Christmann-Franck et al. (2016).

Tests used:
Assay in all cases: KINOMEscan competition binding
Settings in all cases: compound 10.0 µM
STK3 (human) = STK3 (human) (UniProt Q13188)
STK35 (human) = STK35 (human) (UniProt Q8TDR2)
EIF2AK1 (human) = EIF2AK1 (human) (UniProt Q9BQI3)
MAP3K12 (human) = MAP3K12 (human) (UniProt Q12852)
ANKK1 (human) = ANKK1 (human) (UniProt Q8NFD2)
IKBKB (human) = IKBKB (human) (UniProt O14920)
SRC (human) = SRC (human) (UniProt P12931)
NEK3 (human) = NEK3 (human) (UniProt P51956)
TNK1 (human) = TNK1 (human) (UniProt Q13470)
DMPK (human) = DMPK (human) (UniProt Q09013)
EIF2AK2 (human) = EIF2AK2 (human) (UniProt P19525)
INSR (human) = INSR (human) (UniProt P06213)
ERBB3 (human) = ERBB3 (human) (UniProt P21860)
CDKL3 (human) = CDKL3 (human) (UniProt Q8IVW4)
LATS1 (human) = LATS1 (human) (UniProt O95835)
PAK4 (human) = PAK4 (human) (UniProt O96013)
TAOK3 (human) = TAOK3 (human) (UniProt Q9H2K8)
NEK4 (human) = NEK4 (human) (UniProt P51957)
PIP5K1A (human) = PIP5K1A (human) (UniProt Q99755)
MAPK3 (human) = MAPK3 (human) (UniProt P27361)
MKNK1 (human) = MKNK1 (human) (UniProt Q9BUB5)
MARK4 (human) = MARK4 (human) (UniProt Q96L34)
CSNK1E (human) = CSNK1E (human) (UniProt P49674)
VRK2 (human) = VRK2 (human) (UniProt Q86Y07)
STK38 (human) = STK38 (human) (UniProt Q15208)
ITK (human) = ITK (human) (UniProt Q08881)
MATK (human) = MATK (human) (UniProt P42679)
IRAK1 (human) = IRAK1 (human) (UniProt P51617)
FGFR3 (human) = FGFR3 (human) (UniProt P22607)
PAK1 (human) = PAK1 (human) (UniProt Q13153)
ROCK1 (human) = ROCK1 (human) (UniProt Q13464)
BRSK1 (human) = BRSK1 (human) (UniProt Q8TDC3)
ACVR1 (human) = ACVR1 (human) (UniProt Q04771)
DDR1 (human) = DDR1 (human) (UniProt Q08345)
LIMK2 (human) = LIMK2 (human) (UniProt P53671)
SBK1 (human) = SBK1 (human) (UniProt Q52WX2)
CASK (human) = CASK (human) (UniProt O14936)
NEK9 (human) = NEK9 (human) (UniProt Q8TD19)
KDR (human) = KDR (human) (UniProt P35968)
RPS6KB1 (human) = RPS6KB1 (human) (UniProt P23443)
STK11 (human) = STK11 (human) (UniProt Q15831)

Sequence of BRSK1 (human) (Q8TDC3 whole entry, looked up): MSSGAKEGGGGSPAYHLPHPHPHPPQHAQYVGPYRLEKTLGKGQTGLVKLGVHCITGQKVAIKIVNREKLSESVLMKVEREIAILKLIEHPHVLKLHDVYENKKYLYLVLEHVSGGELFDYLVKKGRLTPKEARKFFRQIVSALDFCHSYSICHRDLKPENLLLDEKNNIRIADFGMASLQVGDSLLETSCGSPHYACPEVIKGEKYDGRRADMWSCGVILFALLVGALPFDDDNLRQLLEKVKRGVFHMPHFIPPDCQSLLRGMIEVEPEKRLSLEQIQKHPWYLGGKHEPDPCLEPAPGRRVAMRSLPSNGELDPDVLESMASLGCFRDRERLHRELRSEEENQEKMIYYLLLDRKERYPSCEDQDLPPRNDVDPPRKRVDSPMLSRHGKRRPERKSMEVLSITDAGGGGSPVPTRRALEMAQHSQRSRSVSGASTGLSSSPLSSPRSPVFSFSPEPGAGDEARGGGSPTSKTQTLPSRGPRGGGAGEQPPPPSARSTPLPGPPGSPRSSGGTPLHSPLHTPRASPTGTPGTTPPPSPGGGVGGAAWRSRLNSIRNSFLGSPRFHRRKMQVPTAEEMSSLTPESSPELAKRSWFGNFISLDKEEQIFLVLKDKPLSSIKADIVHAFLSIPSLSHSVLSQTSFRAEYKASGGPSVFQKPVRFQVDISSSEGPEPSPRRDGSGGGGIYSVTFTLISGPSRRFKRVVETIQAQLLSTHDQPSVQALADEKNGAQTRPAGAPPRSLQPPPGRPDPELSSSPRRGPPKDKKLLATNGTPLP
Sequence of PIP5K1A (human) (Q99755 whole entry, looked up): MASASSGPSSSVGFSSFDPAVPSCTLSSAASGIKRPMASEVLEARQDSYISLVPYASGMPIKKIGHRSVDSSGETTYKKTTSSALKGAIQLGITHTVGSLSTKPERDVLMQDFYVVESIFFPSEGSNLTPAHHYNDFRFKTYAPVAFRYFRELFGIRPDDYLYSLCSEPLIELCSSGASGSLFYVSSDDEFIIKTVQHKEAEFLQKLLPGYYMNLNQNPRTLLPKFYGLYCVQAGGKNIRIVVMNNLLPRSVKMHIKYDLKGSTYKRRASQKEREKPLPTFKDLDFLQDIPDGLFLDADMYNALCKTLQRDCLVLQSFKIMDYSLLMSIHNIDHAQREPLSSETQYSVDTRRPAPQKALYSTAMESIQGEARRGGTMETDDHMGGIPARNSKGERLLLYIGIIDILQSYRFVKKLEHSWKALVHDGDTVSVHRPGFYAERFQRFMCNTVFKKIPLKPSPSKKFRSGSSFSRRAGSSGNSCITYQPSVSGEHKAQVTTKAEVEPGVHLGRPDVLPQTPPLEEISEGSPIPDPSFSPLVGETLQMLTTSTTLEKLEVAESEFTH
Sequence of FGFR3 (human) (P22607 whole entry, looked up): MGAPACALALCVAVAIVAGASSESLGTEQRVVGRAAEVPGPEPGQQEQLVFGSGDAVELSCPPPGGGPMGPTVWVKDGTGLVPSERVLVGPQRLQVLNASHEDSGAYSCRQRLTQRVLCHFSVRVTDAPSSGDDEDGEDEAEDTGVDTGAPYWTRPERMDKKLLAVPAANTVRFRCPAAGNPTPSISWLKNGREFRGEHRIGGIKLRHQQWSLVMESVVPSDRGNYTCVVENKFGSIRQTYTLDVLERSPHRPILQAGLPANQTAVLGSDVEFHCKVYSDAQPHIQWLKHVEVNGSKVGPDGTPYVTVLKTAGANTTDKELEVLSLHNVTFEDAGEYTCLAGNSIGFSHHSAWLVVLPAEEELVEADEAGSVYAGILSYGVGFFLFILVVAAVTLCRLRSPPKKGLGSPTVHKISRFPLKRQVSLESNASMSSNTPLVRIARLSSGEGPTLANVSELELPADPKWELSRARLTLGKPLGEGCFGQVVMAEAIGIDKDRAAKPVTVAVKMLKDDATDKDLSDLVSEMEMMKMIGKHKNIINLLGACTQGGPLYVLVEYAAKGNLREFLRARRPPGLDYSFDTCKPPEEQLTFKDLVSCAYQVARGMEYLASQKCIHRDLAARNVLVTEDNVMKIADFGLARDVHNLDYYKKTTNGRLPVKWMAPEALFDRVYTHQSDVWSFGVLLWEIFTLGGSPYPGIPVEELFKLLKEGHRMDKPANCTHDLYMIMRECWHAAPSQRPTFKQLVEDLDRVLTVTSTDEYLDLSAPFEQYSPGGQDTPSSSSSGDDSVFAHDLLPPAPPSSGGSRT
Sequence of STK3 (human) (Q13188 whole entry, looked up): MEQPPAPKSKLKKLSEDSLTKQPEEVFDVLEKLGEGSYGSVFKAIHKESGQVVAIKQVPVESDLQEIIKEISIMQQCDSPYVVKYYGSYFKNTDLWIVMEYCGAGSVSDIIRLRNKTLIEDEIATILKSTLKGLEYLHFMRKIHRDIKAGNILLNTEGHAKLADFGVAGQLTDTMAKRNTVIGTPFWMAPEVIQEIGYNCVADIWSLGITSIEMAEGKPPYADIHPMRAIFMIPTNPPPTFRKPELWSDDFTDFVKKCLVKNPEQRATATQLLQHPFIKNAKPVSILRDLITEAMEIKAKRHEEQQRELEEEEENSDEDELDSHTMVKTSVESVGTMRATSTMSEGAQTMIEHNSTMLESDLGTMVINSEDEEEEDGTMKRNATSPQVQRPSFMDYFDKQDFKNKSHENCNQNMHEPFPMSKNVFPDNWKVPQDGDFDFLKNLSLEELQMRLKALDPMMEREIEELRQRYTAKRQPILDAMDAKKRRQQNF
Sequence of MAPK3 (human) (P27361 whole entry, looked up): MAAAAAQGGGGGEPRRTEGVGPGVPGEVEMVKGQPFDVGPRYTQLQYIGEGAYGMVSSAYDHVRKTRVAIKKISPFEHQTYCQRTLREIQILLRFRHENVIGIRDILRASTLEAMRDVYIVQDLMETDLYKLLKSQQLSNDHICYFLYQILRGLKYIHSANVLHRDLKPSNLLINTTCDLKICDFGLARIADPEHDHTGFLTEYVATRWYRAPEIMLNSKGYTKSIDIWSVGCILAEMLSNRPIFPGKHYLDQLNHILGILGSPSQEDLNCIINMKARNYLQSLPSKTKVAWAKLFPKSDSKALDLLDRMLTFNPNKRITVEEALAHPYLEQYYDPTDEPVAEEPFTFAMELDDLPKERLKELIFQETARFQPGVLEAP
Sequence of RPS6KB1 (human) (P23443 whole entry, looked up): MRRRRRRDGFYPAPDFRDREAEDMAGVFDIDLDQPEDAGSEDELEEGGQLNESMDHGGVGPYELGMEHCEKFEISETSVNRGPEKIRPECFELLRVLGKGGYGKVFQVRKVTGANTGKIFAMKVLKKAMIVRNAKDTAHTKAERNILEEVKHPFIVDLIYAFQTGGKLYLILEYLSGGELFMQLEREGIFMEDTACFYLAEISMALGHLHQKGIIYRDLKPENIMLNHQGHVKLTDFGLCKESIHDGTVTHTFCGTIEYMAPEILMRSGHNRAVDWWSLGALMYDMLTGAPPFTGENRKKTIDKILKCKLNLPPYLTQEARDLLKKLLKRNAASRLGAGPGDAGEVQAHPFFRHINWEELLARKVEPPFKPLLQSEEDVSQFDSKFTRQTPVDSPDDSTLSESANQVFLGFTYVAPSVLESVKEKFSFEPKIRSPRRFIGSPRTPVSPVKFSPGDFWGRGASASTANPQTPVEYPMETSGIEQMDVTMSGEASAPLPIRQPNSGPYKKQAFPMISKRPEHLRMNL
Sequence of DMPK (human) (Q09013 whole entry, looked up): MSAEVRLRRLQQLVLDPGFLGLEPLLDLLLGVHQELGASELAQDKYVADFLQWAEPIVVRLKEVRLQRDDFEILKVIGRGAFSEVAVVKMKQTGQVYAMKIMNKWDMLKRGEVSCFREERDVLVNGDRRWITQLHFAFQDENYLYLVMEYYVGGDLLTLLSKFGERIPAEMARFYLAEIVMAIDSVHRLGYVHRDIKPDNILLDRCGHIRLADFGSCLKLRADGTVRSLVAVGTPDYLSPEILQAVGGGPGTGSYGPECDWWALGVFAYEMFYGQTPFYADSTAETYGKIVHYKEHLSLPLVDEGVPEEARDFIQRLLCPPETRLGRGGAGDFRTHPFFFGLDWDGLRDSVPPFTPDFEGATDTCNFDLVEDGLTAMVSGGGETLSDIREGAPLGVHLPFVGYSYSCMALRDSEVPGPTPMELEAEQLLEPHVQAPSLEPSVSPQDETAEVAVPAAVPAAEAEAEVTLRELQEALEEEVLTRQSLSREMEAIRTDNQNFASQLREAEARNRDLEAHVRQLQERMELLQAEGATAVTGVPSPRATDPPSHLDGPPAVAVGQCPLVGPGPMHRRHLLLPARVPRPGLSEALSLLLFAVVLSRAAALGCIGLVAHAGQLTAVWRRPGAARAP
Sequence of ANKK1 (human) (Q8NFD2 whole entry, looked up): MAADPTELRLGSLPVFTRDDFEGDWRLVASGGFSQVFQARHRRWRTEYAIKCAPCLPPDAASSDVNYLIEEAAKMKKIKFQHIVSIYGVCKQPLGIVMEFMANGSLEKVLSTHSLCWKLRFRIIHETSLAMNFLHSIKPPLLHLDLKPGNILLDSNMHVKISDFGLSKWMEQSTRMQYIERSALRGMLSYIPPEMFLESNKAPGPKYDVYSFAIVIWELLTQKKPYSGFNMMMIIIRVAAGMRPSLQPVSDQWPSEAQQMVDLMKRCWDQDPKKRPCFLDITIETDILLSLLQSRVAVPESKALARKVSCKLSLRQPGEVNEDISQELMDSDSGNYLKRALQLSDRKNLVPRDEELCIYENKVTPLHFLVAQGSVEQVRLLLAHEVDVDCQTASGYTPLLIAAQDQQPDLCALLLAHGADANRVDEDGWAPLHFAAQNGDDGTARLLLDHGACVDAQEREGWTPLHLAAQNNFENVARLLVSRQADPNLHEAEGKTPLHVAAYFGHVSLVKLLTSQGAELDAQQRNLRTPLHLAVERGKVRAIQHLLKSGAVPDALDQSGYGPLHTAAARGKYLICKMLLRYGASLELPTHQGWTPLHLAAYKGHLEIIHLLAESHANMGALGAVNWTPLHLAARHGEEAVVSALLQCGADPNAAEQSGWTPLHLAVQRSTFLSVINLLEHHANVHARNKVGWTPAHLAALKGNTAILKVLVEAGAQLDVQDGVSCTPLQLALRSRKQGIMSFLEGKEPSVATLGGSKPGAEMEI

Compound: COc1cc2c(Nc3ccc(NC(=O)c4ccccc4)cc3)ncnc2cc1OCCCN1CCOCC1
- kinase still bound, per cent of control (STK3 (human)): 100%
- kinase still bound, per cent of control (STK35 (human)): 64%
- kinase still bound, per cent of control (EIF2AK1 (human)): 20%
- kinase still bound, per cent of control (MAP3K12 (human)): 35%
- kinase still bound, per cent of control (ANKK1 (human)): 17%
- kinase still bound, per cent of control (IKBKB (human)): 100%
- kinase still bound, per cent of control (SRC (human)): 32%
- kinase still bound, per cent of control (NEK3 (human)): 100%
- kinase still bound, per cent of control (TNK1 (human)): 69%
- kinase still bound, per cent of control (DMPK (human)): 100%
- kinase still bound, per cent of control (EIF2AK2 (human)): 100%
- kinase still bound, per cent of control (INSR (human)): 77%
- kinase still bound, per cent of control (ERBB3 (human)): 1%
- kinase still bound, per cent of control (CDKL3 (human)): 100%
- kinase still bound, per cent of control (LATS1 (human)): 100%
- kinase still bound, per cent of control (PAK4 (human)): 100%
- kinase still bound, per cent of control (TAOK3 (human)): 95%
- kinase still bound, per cent of control (NEK4 (human)): 57%
- kinase still bound, per cent of control (PIP5K1A (human)): 100%
- kinase still bound, per cent of control (MAPK3 (human)): 100%
- kinase still bound, per cent of control (MKNK1 (human)): 100%
- kinase still bound, per cent of control (MARK4 (human)): 100%
- kinase still bound, per cent of control (CSNK1E (human)): 80%
- kinase still bound, per cent of control (VRK2 (human)): 100%
- kinase still bound, per cent of control (STK38 (human)): 92%
- kinase still bound, per cent of control (ITK (human)): 100%
- kinase still bound, per cent of control (MATK (human)): 100%
- kinase still bound, per cent of control (IRAK1 (human)): 66%
- kinase still bound, per cent of control (FGFR3 (human)): 67%
- kinase still bound, per cent of control (PAK1 (human)): 82%
- kinase still bound, per cent of control (ROCK1 (human)): 98%
- kinase still bound, per cent of control (BRSK1 (human)): 79%
- kinase still bound, per cent of control (ACVR1 (human)): 100%
- kinase still bound, per cent of control (DDR1 (human)): 36%
- kinase still bound, per cent of control (LIMK2 (human)): 78%
- kinase still bound, per cent of control (SBK1 (human)): 92%
- kinase still bound, per cent of control (CASK (human)): 100%
- kinase still bound, per cent of control (NEK9 (human)): 100%
- kinase still bound, per cent of control (KDR (human)): 26%
- kinase still bound, per cent of control (RPS6KB1 (human)): 7.4%
- kinase still bound, per cent of control (STK11 (human)): 100%

Compound: CC1=C(C(=O)Nc2cc3cn[nH]c3cc2F)C(c2ccc(C(F)(F)F)cc2)CC(=O)N1 (stereo not drawn)
- kinase still bound, per cent of control (STK3 (human)): 63%
- kinase still bound, per cent of control (STK35 (human)): 96%
- kinase still bound, per cent of control (EIF2AK1 (human)): 89%
- kinase still bound, per cent of control (MAP3K12 (human)): 69%
- kinase still bound, per cent of control (ANKK1 (human)): 97%
- kinase still bound, per cent of control (IKBKB (human)): 86%
- kinase still bound, per cent of control (SRC (human)): 83%
- kinase still bound, per cent of control (NEK3 (human)): 100%
- kinase still bound, per cent of control (TNK1 (human)): 33%
- kinase still bound, per cent of control (DMPK (human)): 100%
- kinase still bound, per cent of control (EIF2AK2 (human)): 76%
- kinase still bound, per cent of control (INSR (human)): 96%
- kinase still bound, per cent of control (ERBB3 (human)): 92%
- kinase still bound, per cent of control (CDKL3 (human)): 78%
- kinase still bound, per cent of control (LATS1 (human)): 60%
- kinase still bound, per cent of control (PAK4 (human)): 85%
- kinase still bound, per cent of control (TAOK3 (human)): 96%
- kinase still bound, per cent of control (NEK4 (human)): 85%
- kinase still bound, per cent of control (PIP5K1A (human)): 89%
- kinase still bound, per cent of control (MAPK3 (human)): 53%
- kinase still bound, per cent of control (MKNK1 (human)): 100%
- kinase still bound, per cent of control (MARK4 (human)): 100%
- kinase still bound, per cent of control (CSNK1E (human)): 79%
- kinase still bound, per cent of control (VRK2 (human)): 87%
- kinase still bound, per cent of control (STK38 (human)): 19%
- kinase still bound, per cent of control (ITK (human)): 74%
- kinase still bound, per cent of control (MATK (human)): 68%
- kinase still bound, per cent of control (IRAK1 (human)): 90%
- kinase still bound, per cent of control (FGFR3 (human)): 81%
- kinase still bound, per cent of control (PAK1 (human)): 81%
- kinase still bound, per cent of control (ROCK1 (human)): 0.3%
- kinase still bound, per cent of control (BRSK1 (human)): 93%
- kinase still bound, per cent of control (ACVR1 (human)): 100%
- kinase still bound, per cent of control (DDR1 (human)): 100%
- kinase still bound, per cent of control (LIMK2 (human)): 89%
- kinase still bound, per cent of control (SBK1 (human)): 78%
- kinase still bound, per cent of control (CASK (human)): 88%
- kinase still bound, per cent of control (NEK9 (human)): 89%
- kinase still bound, per cent of control (KDR (human)): 88%
- kinase still bound, per cent of control (RPS6KB1 (human)): 50%
- kinase still bound, per cent of control (STK11 (human)): 100%

Compound: CCN1CCN(Cc2ccc(NC(=O)c3ccc(C)c(/C=C/c4cnc5[nH]ccc5c4OC)c3)cc2C(F)(F)F)CC1
- kinase still bound, per cent of control (STK3 (human)): 5.2%
- kinase still bound, per cent of control (STK35 (human)): 23%
- kinase still bound, per cent of control (EIF2AK1 (human)): 78%
- kinase still bound, per cent of control (MAP3K12 (human)): 22%
- kinase still bound, per cent of control (ANKK1 (human)): 5.7%
- kinase still bound, per cent of control (IKBKB (human)): 0.15%
- kinase still bound, per cent of control (SRC (human)): 0.15%
- kinase still bound, per cent of control (NEK3 (human)): 77%
- kinase still bound, per cent of control (TNK1 (human)): 1.4%
- kinase still bound, per cent of control (DMPK (human)): 57%
- kinase still bound, per cent of control (EIF2AK2 (human)): 80%
- kinase still bound, per cent of control (INSR (human)): 79%
- kinase still bound, per cent of control (ERBB3 (human)): 100%
- kinase still bound, per cent of control (CDKL3 (human)): 4%
- kinase still bound, per cent of control (LATS1 (human)): 32%
- kinase still bound, per cent of control (PAK4 (human)): 86%
- kinase still bound, per cent of control (TAOK3 (human)): 0%
- kinase still bound, per cent of control (NEK4 (human)): 33%
- kinase still bound, per cent of control (PIP5K1A (human)): 2.6%
- kinase still bound, per cent of control (MAPK3 (human)): 100%
- kinase still bound, per cent of control (MKNK1 (human)): 68%
- kinase still bound, per cent of control (MARK4 (human)): 100%
- kinase still bound, per cent of control (CSNK1E (human)): 45%
- kinase still bound, per cent of control (VRK2 (human)): 92%
- kinase still bound, per cent of control (STK38 (human)): 72%
- kinase still bound, per cent of control (ITK (human)): 18%
- kinase still bound, per cent of control (MATK (human)): 100%
- kinase still bound, per cent of control (IRAK1 (human)): 26%
- kinase still bound, per cent of control (FGFR3 (human)): 1.8%
- kinase still bound, per cent of control (PAK1 (human)): 100%
- kinase still bound, per cent of control (ROCK1 (human)): 43%
- kinase still bound, per cent of control (BRSK1 (human)): 100%
- kinase still bound, per cent of control (ACVR1 (human)): 100%
- kinase still bound, per cent of control (DDR1 (human)): 0.15%
- kinase still bound, per cent of control (LIMK2 (human)): 2.9%
- kinase still bound, per cent of control (SBK1 (human)): 57%
- kinase still bound, per cent of control (CASK (human)): 77%
- kinase still bound, per cent of control (NEK9 (human)): 8.4%
- kinase still bound, per cent of control (KDR (human)): 2.6%
- kinase still bound, per cent of control (RPS6KB1 (human)): 9%
- kinase still bound, per cent of control (STK11 (human)): 7.9%
